Laboratory results from patent publication US12617768B2, “Radiolabeled cannabinoid receptor 2 ligand” (HOFFMANN-LA ROCHE INC., priority 2018, dated 2026).

Biological target: T1, human CB1 receptors (Homo sapiens, UniProt P21554)
T1 construct: expressed in transfected cells; host or cells: stably transfected cells (cell line for CB1 not explicitly stated)
Assay: Radioligand competition binding of [^3H]CP55940, human CB1
Conditions: competition with [^3H]CP55940; cells recombinantly expressing the receptor
Description: Stably transfected cells or spleen tissue were homogenized in 15 mmol L-1 Hepes, 0.3 mmol L-1 EDTA, 1 mmol L-1 EGTA, 2 mmol L-1 MgCl2, complete EDTA-free protease inhibitor (Roche Applied Science, Rotkreuz, Switzerland), pH 7.4 using a glass potter and centrifugation at 47,800 g at 4° C. for 30 min. The pellet was then rehomogenized twice in the same buffer and centrifuged (47,800 g, 4° C., 30 min). The final pellet was then resuspended in 75 mmol L-1 Tris, 0.3 mmol L-1 EDTA, 1 mmol L-1 EGTA, 12.5 mmol L-1 MgCl2, 250 mmol L-1 sucrose, pH 7.4 at a protein concentration of 1 to 3 mg mL-1, aliquoted, frozen on dry ice and stored at −80° C.
For competition binding, membrane preparations were incubated either with 0.3 nM of [^3H]-CP55940 in the presence or absence of increasing concentrations of unlabeled (R^1═R^2═CH2CH3, R^3═CH2CH2CH2F) compound of formula (I) or with 1.5 nM compound of formula (I) ((R^1═R^2═CHTCH2T, R^3═CH2CH2CH2F)) and increasing amounts of membranes (2.5-80 μg) in the presence or absence of CP55940 (10 μM) for 60 min at 30° C. in a final volume of 0.2 mL of 50 mmol L-1 Tris-HCl, 5 mmol L-1 MgCl2, 2.5 mmol L-1 EGTA, 0.1% fatty acid-free BSA and 1% DMSO, pH 7.4, buffer, gently shaking. […] IC50 values and Hill slopes were determined by a four parameter logistic model using ActivityBase

T1 sequence (P21554 whole entry): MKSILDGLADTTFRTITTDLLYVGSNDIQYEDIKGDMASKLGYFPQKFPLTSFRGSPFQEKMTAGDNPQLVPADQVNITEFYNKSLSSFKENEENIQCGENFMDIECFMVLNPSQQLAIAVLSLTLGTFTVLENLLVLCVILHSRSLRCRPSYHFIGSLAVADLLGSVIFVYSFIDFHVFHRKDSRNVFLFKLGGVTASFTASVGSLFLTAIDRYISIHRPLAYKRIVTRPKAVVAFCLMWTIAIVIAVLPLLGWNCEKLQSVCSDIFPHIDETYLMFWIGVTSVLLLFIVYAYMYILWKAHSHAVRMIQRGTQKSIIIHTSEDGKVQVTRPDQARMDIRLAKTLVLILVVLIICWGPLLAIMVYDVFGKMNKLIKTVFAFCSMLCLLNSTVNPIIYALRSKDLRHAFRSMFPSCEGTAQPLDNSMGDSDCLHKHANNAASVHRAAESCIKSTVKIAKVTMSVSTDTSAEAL

Ki: > 10 µM
SMILES: CCC(CC)(NC(=O)c1ccc(N2CC(OC)C2)c(OC[C@H]2C[C@@H]2CO)n1)C(=O)OCCCF [unlabeled compound of formula (I)]
